Experiments:
[1] = test system: Wistar, adult, male, rats; test: Induction of status epilepticus by systemic pilocarpine; assay type: in vivo; conditions: pilocarpine 320 mg/Kg intraperitoneal
[2] = test system: kainate model of epilepsy; test: Onset of spontaneous recurrent seizures in the kainate model of epilepsy

CC[C@@H]1C(=O)OC[C@@H]1Cc1cncn1C [pilocarpine]
Latency for the onset of status epilepticus after injection [1]: 19 ± 5 min

CN1[C@@H]2C[C@@H](OC(=O)[C@H](CO)c3ccccc3)C[C@H]1[C@@H]1O[C@@H]12 [scopolamine]
Effect on onset of spontaneous recurrent seizures (in words) [2]: retard or even suppress the onset of spontaneous recurrent seizures
